ChEMBL document CHEMBL1133669 (J Med Chem, 2000)

target: Carbonic anhydrase 1 (Homo sapiens, UniProt P00915)
Sequence (P00915 whole entry): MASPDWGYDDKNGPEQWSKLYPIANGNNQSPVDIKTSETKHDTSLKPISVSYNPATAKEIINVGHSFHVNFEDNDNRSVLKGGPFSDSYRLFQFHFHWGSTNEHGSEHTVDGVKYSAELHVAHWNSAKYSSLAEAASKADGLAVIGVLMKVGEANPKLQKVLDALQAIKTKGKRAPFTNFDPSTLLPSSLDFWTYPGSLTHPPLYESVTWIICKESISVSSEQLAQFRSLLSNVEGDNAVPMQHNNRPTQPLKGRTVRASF
Description: Inhibitory activity against human carbonic anhydrase I (CA1)

SMILES | Ki [nM]
CCc1cc(-c2ccccc2)cc(CC)[n+]1CC(=O)Oc1ccc2nc(S(N)(=O)=O)sc2c1 | 11
Cc1cc(C)[n+](CC(=O)NNc2ccc(S(N)(=O)=O)cc2)c(C)c1 | 35000
CC(C)c1cc(-c2ccccc2)cc(C(C)C)[n+]1CC(=O)Nc1ccccc1S(N)(=O)=O | 30500
Cc1cc(-c2ccccc2)cc(C)[n+]1CC(=O)OCCOc1ccc2nc(S(N)(=O)=O)sc2c1 | 9
Cc1cc(C)[n+](CC(=O)Nc2ccc(S(N)(=O)=O)cc2I)c(C)c1 | 810
Cc1cc(C)[n+](CC(=O)Nc2ccc(S(=O)(=O)Nc3nnc(S(N)(=O)=O)s3)cc2)c(C)c1 | 15
Cc1cc(C)[n+](CC(=O)Nc2ccc(S(=O)(=O)/N=c3/sc(S(N)(=O)=O)nn3C)cc2)c(C)c1 | 15
CC(C)c1cc(-c2ccccc2)cc(C(C)C)[n+]1CC(=O)Nc1ccc(S(N)(=O)=O)cc1F | 750
Cc1cc(C)[n+](CC(=O)Nc2ccc(S(N)(=O)=O)cc2Cl)c(C)c1 | 680
CC(C)c1cc(-c2ccccc2)cc(C(C)C)[n+]1CC(=O)Nc1cccc(S(N)(=O)=O)c1 | 23100
CC(C)c1cc(-c2ccccc2)cc(C(C)C)[n+]1CC(=O)Nc1ccc(S(N)(=O)=O)cc1I | 630
Cc1cc(C)[n+](CC(=O)Nc2ccc(S(=O)(=O)Nc3cccc(S(N)(=O)=O)c3)cc2)c(C)c1 | 61
Cc1cc(C)[n+](CC(=O)Nc2ccccc2S(N)(=O)=O)c(C)c1 | 32000
Cc1cc(-c2ccccc2)cc(C)[n+]1CC(=O)Nc1c(S(N)(=O)=O)cc(S(N)(=O)=O)c(Cl)c1Cl | 380
CCc1cc(-c2ccccc2)cc(CC)[n+]1CC(=O)OCCOc1ccc2nc(S(N)(=O)=O)sc2c1 | 10
Cc1cc(C)[n+](CC(=O)OCCOc2ccc3nc(S(N)(=O)=O)sc3c2)c(C)c1 | 12
CCc1cc(-c2ccccc2)cc(CC)[n+]1CC(=O)Nc1ccc2nc(S(N)(=O)=O)sc2c1 | 11
CCc1cc(-c2ccccc2)cc(CC)[n+]1CC(=O)Nc1ccc(S(=O)(=O)Nc2ccc(S(N)(=O)=O)cc2)cc1 | 46
Cn1nc(S(N)(=O)=O)s/c1=N/S(=O)(=O)c1ccc(N)cc1 | 1
Cc1cc(C)[n+](CC(=O)Nc2ccc(S(N)(=O)=O)cc2)c(C)c1 | 16000
CC(C)c1cc(-c2ccccc2)cc(C(C)C)[n+]1CC(=O)Nc1cc(Cl)c(S(N)(=O)=O)cc1S(N)(=O)=O | 350

Second part, the molecule after the results:

Ki [nM] | SMILES
45 | CCc1cc(-c2ccccc2)cc(CC)[n+]1CC(=O)Nc1nccc(Nc2ccc(S(N)(=O)=O)cc2)n1
750 | CCc1cc(-c2ccccc2)cc(CC)[n+]1CC(=O)Nc1ccc(S(N)(=O)=O)cc1F
25300 | Cc1cc(-c2ccccc2)cc(C)[n+]1CC(=O)Nc1ccccc1S(N)(=O)=O
1350 | Cc1cc(-c2ccccc2)cc(C)[n+]1CC(=O)OCc1ccc(S(N)(=O)=O)cc1
750 | CCc1cc(-c2ccccc2)cc(CC)[n+]1CC(=O)NCCc1ccc(S(N)(=O)=O)cc1
700 | Cc1cc(-c2ccccc2)cc(C)[n+]1CC(=O)Nc1ccc(S(N)(=O)=O)cc1F
27500 | CCc1cc(-c2ccccc2)cc(CC)[n+]1CC(=O)Nc1ccccc1S(N)(=O)=O
1250 | Cc1cc(-c2ccccc2)cc(C)[n+]1CC(=O)NCc1ccc(S(N)(=O)=O)cc1
15000 | CCc1cc(-c2ccccc2)cc(CC)[n+]1CC(=O)Nc1ccc(S(N)(=O)=O)cc1
615 | CCc1cc(-c2ccccc2)cc(CC)[n+]1CC(=O)Nc1ccc(S(N)(=O)=O)cc1Br
11 | Cc1cc(-c2ccccc2)cc(C)[n+]1CC(=O)Oc1ccc2nc(S(N)(=O)=O)sc2c1
805 | Cc1cc(C)[n+](CC(=O)NCCc2ccc(S(N)(=O)=O)cc2)c(C)c1
1500 | CCc1cc(-c2ccccc2)cc(CC)[n+]1CC(=O)OCCc1ccc(S(N)(=O)=O)cc1
34000 | CC(C)c1cc(-c2ccccc2)cc(C(C)C)[n+]1CC(=O)NNc1ccc(S(N)(=O)=O)cc1

target: T1, Carbonic anhydrase 4 (Bos taurus, UniProt Q95323)
T1 sequence (Q95323 whole entry): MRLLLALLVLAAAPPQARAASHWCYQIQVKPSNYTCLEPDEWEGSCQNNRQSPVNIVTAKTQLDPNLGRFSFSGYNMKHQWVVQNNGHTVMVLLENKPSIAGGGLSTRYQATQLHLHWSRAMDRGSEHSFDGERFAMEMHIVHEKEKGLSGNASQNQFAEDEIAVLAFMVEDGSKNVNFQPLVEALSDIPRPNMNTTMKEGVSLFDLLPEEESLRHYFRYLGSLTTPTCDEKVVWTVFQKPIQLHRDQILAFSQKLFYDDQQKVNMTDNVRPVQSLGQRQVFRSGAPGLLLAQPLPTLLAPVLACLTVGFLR
Description: Inhibitory activity against bovine carbonic anhydrase IV (CA4), isolated from bovine lung microsomes

SMILES | Ki [nM]
CCc1cc(-c2ccccc2)cc(CC)[n+]1CC(=O)Oc1ccc2nc(S(N)(=O)=O)sc2c1 | 27
Cc1cc(C)[n+](CC(=O)NNc2ccc(S(N)(=O)=O)cc2)c(C)c1 | 450
CC(C)c1cc(-c2ccccc2)cc(C(C)C)[n+]1CC(=O)Nc1ccccc1S(N)(=O)=O | 350
Cc1cc(-c2ccccc2)cc(C)[n+]1CC(=O)OCCOc1ccc2nc(S(N)(=O)=O)sc2c1 | 16
Cc1cc(C)[n+](CC(=O)Nc2ccc(S(N)(=O)=O)cc2I)c(C)c1 | 78
Cc1cc(C)[n+](CC(=O)Nc2ccc(S(=O)(=O)Nc3nnc(S(N)(=O)=O)s3)cc2)c(C)c1 | 12
CC(C)c1cc(-c2ccccc2)cc(C(C)C)[n+]1CC(=O)Nc1ccc(S(N)(=O)=O)cc1F | 39
Cc1cc(C)[n+](CC(=O)Nc2ccc(S(N)(=O)=O)cc2Cl)c(C)c1 | 70
CC(C)c1cc(-c2ccccc2)cc(C(C)C)[n+]1CC(=O)Nc1cccc(S(N)(=O)=O)c1 | 345
CC(C)c1cc(-c2ccccc2)cc(C(C)C)[n+]1CC(=O)Nc1ccc(S(N)(=O)=O)cc1I | 75
Cc1cc(C)[n+](CC(=O)Nc2ccc(S(=O)(=O)Nc3cccc(S(N)(=O)=O)c3)cc2)c(C)c1 | 86
Cc1cc(C)[n+](CC(=O)Nc2ccccc2S(N)(=O)=O)c(C)c1 | 425
Cc1cc(-c2ccccc2)cc(C)[n+]1CC(=O)Nc1c(S(N)(=O)=O)cc(S(N)(=O)=O)c(Cl)c1Cl | 31
CCc1cc(-c2ccccc2)cc(CC)[n+]1CC(=O)OCCOc1ccc2nc(S(N)(=O)=O)sc2c1 | 25
Cc1cc(C)[n+](CC(=O)OCCOc2ccc3nc(S(N)(=O)=O)sc3c2)c(C)c1 | 33
CCc1cc(-c2ccccc2)cc(CC)[n+]1CC(=O)Nc1ccc2nc(S(N)(=O)=O)sc2c1 | 30
CCc1cc(-c2ccccc2)cc(CC)[n+]1CC(=O)Nc1ccc(S(=O)(=O)Nc2ccc(S(N)(=O)=O)cc2)cc1 | 63
Cn1nc(S(N)(=O)=O)s/c1=N/S(=O)(=O)c1ccc(N)cc1 | 0.8
Cc1cc(C)[n+](CC(=O)Nc2ccc(S(N)(=O)=O)cc2)c(C)c1 | 190
CC(C)c1cc(-c2ccccc2)cc(C(C)C)[n+]1CC(=O)Nc1cc(Cl)c(S(N)(=O)=O)cc1S(N)(=O)=O | 46

The next lines start with the values.

Ki [nM] | SMILES
58 | CCc1cc(-c2ccccc2)cc(CC)[n+]1CC(=O)Nc1nccc(Nc2ccc(S(N)(=O)=O)cc2)n1
39 | CCc1cc(-c2ccccc2)cc(CC)[n+]1CC(=O)Nc1ccc(S(N)(=O)=O)cc1F
290 | Cc1cc(-c2ccccc2)cc(C)[n+]1CC(=O)Nc1ccccc1S(N)(=O)=O
75 | Cc1cc(-c2ccccc2)cc(C)[n+]1CC(=O)OCc1ccc(S(N)(=O)=O)cc1
61 | CCc1cc(-c2ccccc2)cc(CC)[n+]1CC(=O)NCCc1ccc(S(N)(=O)=O)cc1
36 | Cc1cc(-c2ccccc2)cc(C)[n+]1CC(=O)Nc1ccc(S(N)(=O)=O)cc1F
335 | CCc1cc(-c2ccccc2)cc(CC)[n+]1CC(=O)Nc1ccccc1S(N)(=O)=O
50 | Cc1cc(-c2ccccc2)cc(C)[n+]1CC(=O)NCc1ccc(S(N)(=O)=O)cc1
170 | CCc1cc(-c2ccccc2)cc(CC)[n+]1CC(=O)Nc1ccc(S(N)(=O)=O)cc1
55 | CCc1cc(-c2ccccc2)cc(CC)[n+]1CC(=O)Nc1ccc(S(N)(=O)=O)cc1Br
17 | Cc1cc(-c2ccccc2)cc(C)[n+]1CC(=O)Oc1ccc2nc(S(N)(=O)=O)sc2c1
71 | Cc1cc(C)[n+](CC(=O)NCCc2ccc(S(N)(=O)=O)cc2)c(C)c1
84 | CCc1cc(-c2ccccc2)cc(CC)[n+]1CC(=O)OCCc1ccc(S(N)(=O)=O)cc1
360 | CC(C)c1cc(-c2ccccc2)cc(C(C)C)[n+]1CC(=O)NNc1ccc(S(N)(=O)=O)cc1
